The test system of assay [1] is Enterococcus faecium ATCC 700221 VRE (Vancomycin resistant E. faecium). As to the kind of experiment: In-vitro antibacterial activity, broth microdilution MIC. Particulars: Table 9, read-out: Antimicrobial activity (in vitro MIC) ATCC 700221. It is filed as cell-based. On the procedure: (§1) The in-vitro antibacterial activity of the compounds of the present invention (as described in Table 7) was determined by a broth microdilution following the guidelines prescribed by the Clinical and Laboratory Standards Institute (CLSI). This method is described in the CLSI Document M7-A7, Vol. 26, No. 2, “Methods for Dilution Antimicrobial Susceptibility Test for Bacteria that Grow Aerobically; Approved Standard-Seventh Edition”, which is incorporated herein by reference. Minimum Inhibitory Concentration (MIC) is defined as the minimum concentration of test compound which inhibits the growth of bacteria as visible or seen by the naked eye. This test can also be carried out by agar dilution method.
(§2) The compounds of the present invention were tested against a panel of standard microorganisms obtained from ATCC (American type culture collection). Linezolid was used as comparator in all the tests.
(§3) In the broth microdilution method, the compound was dissolved in dimethylsulfoxide and two fold serial dilutions were carried out in 96 well microtitre plates. The inoculum was prepared by adjusting the turbidity of actively growing broth culture and added to the wells to obtain a final bacterial count of ˜2-5×10^4 CFU/well. The microtitre plates were incubated at 35±2° C. for 16-20 h and then read visually.

Assay [2] relates to Staphylococcus aureus ATCC 33591 MRSA (Methicillin resistant). The description is as above. It is filed as cell-based. Particulars: Table 9, S. aureus MRSA, read-out: Antimicrobial activity (in vitro MIC) ATCC 33591. On the procedure:
as §1, §2, §3

Assay [3] has as its system Enterococcus faecalis ATCC 29212 Vancomycin Sensitive. The assay is described as above. It is filed as cell-based. Particulars: ATCC29212, Table 9, E. faecalis, read-out: Antimicrobial activity (in vitro MIC) ATCC 29212. The procedure: as §1, §2, §3
In assay [4] the test system is Staphylococcus aureus ATCC 29213 MSSA (Methicillin sensitive). Described as above. It is filed as cell-based. The note with it: Table 9, S. aureus MSSA, read-out: Antimicrobial activity (in vitro MIC) ATCC 29213. On the procedure: as §1, §2, §3
For another assay, the system named is male SWISS albino mice. As to the kind of experiment: Forced Swim Test. It is filed as in vivo. Particulars: mice; for CNS Activity (in vivo FST) % decrease in immobility time (dose 32 mg/kg) / CNS Activity (in vivo FST) % decrease in immobility time: Table 9; for CNS Activity (in vivo FST) % decrease in immobility time: footnote *: dose 64 mg/kg/p.o; for inhibition in vivo at 32 mg/kg: Mus musculus, 0.25 h, read-out: % decrease in immobility time (dose 32 mg/kg); for inhibition in vivo at 32 mg/kg / % decrease in immobility time (dose 64 mg/kg): Table 8, oral, suspended in deionized water, 15 min before test. On the procedure:
This test was conducted according to the method of Porsolt et al. (Porsolt, R. D., et al., Behavioural despair in mice: A primary screening test for antidepressants. Arch. in Pharmacodyn. Ther., 229, pp 327-336 (1977)).
A test compound was suspended in deionized water, unless otherwise specified, and this suspension was orally administered to male SWISS albino mice (7 to 9 week old). 15 min later, the mice were placed in a water tank having a water depth of 15 cm and a water temperature of 25±1° C. and immediately thereafter allowed to swim for 6 min. Then, a time during which the mouse was immobile (immobility time) was measured for the last 4 min.

The results in this text go back to US8906913B2, “Azabicyclohexanes” (Panacea Biotec Limited, priority 2009, dated 2014).

In general, MIC refers to the smallest concentration in the dilution series that meets the test's criterion for growth inhibition.

Values after ≈ are worked out from the molar mass of the structure shown.

On to `CCN1CC2CC2(c2ccc(N3CCCC3)cc2)C1` (stereo not drawn) [drawing 535], for which the MIC in assay [1], in assay [2], in assay [3] and in assay [4] was over 32 µg/mL throughout. Further, the “CNS Activity (in vivo FST) % decrease in immobility time (dose 32 mg/kg)” value with male SWISS albino mice was 99.9 ± 0.1%.
For the molecule `CCN1CC2CC2(c2ccc(N3CCOCC3)cc2)C1` (stereo not drawn), the MIC in assay [1], in assay [2], in assay [3] and in assay [4] was over 32 µg/mL each time. Further, in the assay with male SWISS albino mice, the “CNS Activity (in vivo FST) % decrease in immobility time” value is on record as 81.0 ± 7.1* %.
Take `c1cc(C23CNCC2C3)ccc1N1CCOCC1` (stereo not drawn) [drawing 537]: the MIC in assay [1], in assay [2], in assay [3] and in assay [4] was over 32 µg/mL in each case. In addition, the “CNS Activity (in vivo FST) % decrease in immobility time” value in the assay with male SWISS albino mice is listed as 84.8* %.
Take `CCN1C[C@@H]2C[C@]2(c2ccc(N3CC(C)OC(C)C3)cc2)C1` (stereo partly drawn): the inhibition in vivo at 32 mg/kg with male SWISS albino mice worked out at 80.9 ± 8.7%.
For the molecule `COCCN1CC2CC2(c2ccc(N3CCOCC3)cc2)C1` (stereo not drawn), the “% decrease in immobility time (dose 64 mg/kg)” value (“% decrease … (dose 64 mg/kg)” below) with male SWISS albino mice is recorded as 62.4 ± 16.3%.
In the case of `CCN1CC2CC2(c2ccc(N3CCC(F)C3)cc2)C1` (stereo not drawn), in the assay on male SWISS albino mice, the inhibition in vivo at 32 mg/kg was 77.1 ± 11.2%.
Turning to `CC1CN(c2ccc([C@]34CNC[C@H]3C4)cc2)CC(C)O1` (stereo partly drawn), the “% decrease … (dose 64 mg/kg)” value in the assay on male SWISS albino mice was 63.9 ± 4.8%.
On to `CCN1CC2CC2(c2ccc(N3CCn4cnnc4C3)cc2)C1` (stereo not drawn), for which the “% decrease … (dose 64 mg/kg)” value with male SWISS albino mice turned out to be 89.6 ± 10.4%.
As to `CCN1CC2C(COC)C2(c2ccc(N3CCCC3)cc2)C1` (stereo not drawn) [drawing 538], the MIC in assay [1], in assay [2], in assay [3] and in assay [4] was over 32 µg/mL in each case. For the same molecule, the “CNS Activity (in vivo FST) % decrease in immobility time (dose 32 mg/kg)” value in the assay with male SWISS albino mice was 97.2 ± 1.2%.
For the molecule `CCN1CC2C(COC)C2(c2ccc(N3CCOCC3)cc2)C1` (stereo not drawn), in the assay with male SWISS albino mice, the “% decrease … (dose 64 mg/kg)” value was determined as 58.4 ± 10.1%.
For `CCN1CC2CC2(c2ccc(N3CC(C)OC(C)C3)cc2)C1` (stereo not drawn), the inhibition in vivo at 32 mg/kg in the assay with male SWISS albino mice is 81.6 ± 10.1%.
As for `CCN1C[C@H]2C[C@@]2(c2ccc(N3CCOCC3)cc2)C1`, in the assay with male SWISS albino mice, the inhibition in vivo at 32 mg/kg came to 87.7 ± 6%.
With `CCN1CC2CC2(c2ccc(N3CCOCC3=O)cc2)C1.Cl` (stereo not drawn), in the assay on male SWISS albino mice, the “% decrease … (dose 64 mg/kg)” value amounted to 88.7 ± 5.2%.
In the case of `CCN1C[C@H]2C[C@@]2(c2ccc(N3C[C@H](C)O[C@@H](C)C3)cc2)C1`, the inhibition in vivo at 32 mg/kg in the assay with male SWISS albino mice came out at 79.8 ± 10.7%.
Regarding `c1cc(C23CNCC2C3)ccc1N1CCOCC1` (stereo not drawn) [drawing 510], in the assay with male SWISS albino mice, the “% decrease … (dose 64 mg/kg)” value turned out to be 37.6 ± 14.5%.
With `CCN1C[C@H]2C[C@@]2(c2ccc(N3CC(C)OC(C)C3)cc2)C1` (stereo partly drawn), in the assay on male SWISS albino mice, the “% decrease … (dose 64 mg/kg)” value was found to be 92.4 ± 7.6%.
In the case of `CCN1C[C@H]2C[C@@]2(c2ccc(N3CCCC3)cc2)C1`, in the assay on male SWISS albino mice, the inhibition in vivo at 32 mg/kg was determined as 97.7 ± 2.3%.
In the case of `CC(=O)N1CC2CC2(c2ccc(N3C[C@H](CO)OC3=O)cc2)C1` (stereo partly drawn) [drawing 534], the MIC was determined as 4 µg/mL (≈ 12.6 µM) in assay [1], 2 µg/mL (≈ 6.32 µM) in assay [2], 4 µg/mL (≈ 12.6 µM) in assay [3] and 4 µg/mL (≈ 12.6 µM) in assay [4]. Besides, in the assay on male SWISS albino mice, the “CNS Activity (in vivo FST) % decrease in immobility time (dose 32 mg/kg)” value is on record as 5.1 ± 1.4%.
As to `CCN1CC2C(COC)C2(c2ccc(N3CCCC3)cc2)C1` (stereo not drawn) [drawing 531], the inhibition in vivo at 32 mg/kg in the assay with male SWISS albino mice is 97.2 ± 1.2%.
Take `CCN1CC2CC2(c2cc3cc(N4CCOCC4)ccc3s2)C1` (stereo not drawn): the “% decrease … (dose 64 mg/kg)” value with male SWISS albino mice is listed as 38.4 ± 2.7%.
On to `CCN1C[C@H]2C[C@@]2(c2ccc(N3CCC(F)C3)cc2)C1` (stereo partly drawn), for which the inhibition in vivo at 32 mg/kg with male SWISS albino mice stood at 75.5 ± 12.9%.
For `CCOCC1C2CN(CC)CC12c1ccc(N2CCCC2)cc1` (stereo not drawn), the inhibition in vivo at 32 mg/kg with male SWISS albino mice stood at 80.6 ± 13.7%.
In the case of `COCCN1C[C@H]2C[C@@]2(c2ccc(N3CCOCC3)cc2)C1`, the “% decrease … (dose 64 mg/kg)” value in the assay with male SWISS albino mice came out at 79.2 ± 14.9%.
Consider `CCN1CC2CC2(c2ccc(N3CCOC3=O)cc2)C1.Cl` (stereo not drawn), for which the MIC in assay [1], in assay [2], in assay [3] and in assay [4] was over 32 µg/mL throughout. The “CNS Activity (in vivo FST) % decrease in immobility time (dose 32 mg/kg)” value in the assay with male SWISS albino mice was 99.2 ± 0.8%.
